Data as given in the supplement of paper PMC10307832.

Columns and labels:
Assay in all cases: relative viability (nuclei count vs DMSO), 5 days (fraction); higher = more cells survive
[1] = test system: NCI-H2087
Procedure, shortened: (§1)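 One day after seeding in 1536-well plates, lung cancer cell lines were dosed by pin tool. Dosing was either single-drug or a fixed anchor-drug dose plus five library-drug doses (not always all listed) in √10 steps. After 5 days, nuclei were stained in one fix-and-stain step and counted on 4× images, and relative viability is the nuclei count of treated wells over that of vehicle wells, given as the median of duplicate plates.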

[2] = test system: H3255
Procedure, shortened: as §1

[3] = test system: NCI-H322M
Procedure, shortened: as §1

[4] = test system: PC-14
Procedure, shortened: as §1

[5] = test system: PC-3 [JPC-3]
Procedure, shortened: as §1

[6] = test system: NCI-H1792
Procedure, shortened: as §1

[7] = test system: NCI-H1355
Procedure, shortened: as §1

[8] = test system: LK-2
Procedure, shortened: as §1

[9] = test system: NCI-H2228
Procedure, shortened: as §1

[10] = test system: NCI-H1666
Procedure, shortened: as §1

[11] = test system: UMC-11
Procedure, shortened: as §1

[12] = test system: NCI-H838
Procedure, shortened: as §1

[13] = test system: NCI-H661
Procedure, shortened: as §1

[14] = test system: NCI-H1651
Procedure, shortened: as §1

[15] = test system: ABC-1
Procedure, shortened: as §1

[16] = test system: CAL-12T
Procedure, shortened: as §1

[17] = test system: A-427
Procedure, shortened: as §1

[18] = test system: NCI-H2085
Procedure, shortened: as §1

[19] = test system: NCI-H1395
Procedure, shortened: as §1

[20] = test system: NCI-H358
Procedure, shortened: as §1

[21] = test system: SK-MES-1
Procedure, shortened: as §1

[22] = test system: NCI-H1915
Procedure, shortened: as §1

[23] = test system: LCLC-97TM1
Procedure, shortened: as §1

Compound: O=c1[nH]c2ccccc2n1C1CCN(CCCC(c2ccc(F)cc2)c2ccc(F)cc2)CC1 [Pimozide] + Cc1nc(Nc2ncc(C(=O)Nc3c(C)cccc3Cl)s2)cc(N2CCN(CCO)CC2)n1 [Dasatinib] (partner 0.075 µM)
- relative viability ([1]; first compound 0.08 µM): 0.905
- relative viability ([1]; first compound 0.253 µM): 0.724
- relative viability ([1]; first compound 2.53 µM): 0.642
- relative viability ([1]; first compound 8 µM): 0.672
- relative viability ([2]; first compound 0.253 µM): 0.355
- relative viability ([2]; first compound 0.8 µM): 0.51
- relative viability ([2]; first compound 2.53 µM): 0.446
- relative viability ([2]; first compound 8 µM): 0.323
- relative viability ([3]; first compound 0.253 µM): 0.234
- relative viability ([3]; first compound 0.8 µM): 0.247
- relative viability ([3]; first compound 2.53 µM): 0.257
- relative viability ([3]; first compound 8 µM): 0.231
- relative viability ([4]; first compound 0.08 µM): 0.027
- relative viability ([4]; first compound 0.253 µM): 0.241
- relative viability ([4]; first compound 0.8 µM): 0.272
- relative viability ([4]; first compound 2.53 µM): 0.306
- relative viability ([4]; first compound 8 µM): 0.18
- relative viability ([5]; first compound 0.08 µM): 0.529
- relative viability ([5]; first compound 0.253 µM): 0.912
- relative viability ([5]; first compound 0.8 µM): 0.867
- relative viability ([5]; first compound 2.53 µM): 0.892
- relative viability ([5]; first compound 8 µM): 0.897
- relative viability ([6]; first compound 0.08 µM): 0.89
- relative viability ([6]; first compound 0.253 µM): 0.823
- relative viability ([6]; first compound 0.8 µM): 0.769
- relative viability ([6]; first compound 2.53 µM): 0.973
- relative viability ([6]; first compound 8 µM): 0.849
- relative viability ([7]; first compound 0.08 µM): 0.744
- relative viability ([7]; first compound 0.253 µM): 0.722
- relative viability ([7]; first compound 0.8 µM): 0.671
- relative viability ([7]; first compound 2.53 µM): 0.672
- relative viability ([7]; first compound 8 µM): 0.732
- relative viability ([8]; first compound 0.08 µM): 0.33
- relative viability ([8]; first compound 0.253 µM): 0.273
- relative viability ([8]; first compound 2.53 µM): 0.242
- relative viability ([8]; first compound 8 µM): 0.24
- relative viability ([9]; first compound 0.08 µM): 0.524
- relative viability ([9]; first compound 0.253 µM): 0.604
- relative viability ([9]; first compound 0.8 µM): 0.448
- relative viability ([9]; first compound 2.53 µM): 0.345
- relative viability ([9]; first compound 8 µM): 0.315
- relative viability ([10]; first compound 0.08 µM): 0.752
- relative viability ([10]; first compound 0.253 µM): 0.814
- relative viability ([10]; first compound 0.8 µM): 0.82
- relative viability ([10]; first compound 2.53 µM): 0.708
- relative viability ([10]; first compound 8 µM): 0.684
- relative viability ([11]; first compound 0.08 µM): 0.46
- relative viability ([11]; first compound 0.253 µM): 0.45
- relative viability ([11]; first compound 0.8 µM): 0.468
- relative viability ([11]; first compound 2.53 µM): 0.431
- relative viability ([11]; first compound 8 µM): 0.424
- relative viability ([12]; first compound 0.08 µM): 0.266
- relative viability ([12]; first compound 0.253 µM): 0.282
- relative viability ([12]; first compound 0.8 µM): 0.225
- relative viability ([12]; first compound 2.53 µM): 0.302
- relative viability ([12]; first compound 8 µM): 0.279
- relative viability ([13]; first compound 0.08 µM): 0.782
- relative viability ([13]; first compound 0.253 µM): 0.828
- relative viability ([13]; first compound 0.8 µM): 0.826
- relative viability ([13]; first compound 2.53 µM): 0.725
- relative viability ([13]; first compound 8 µM): 0.611
- relative viability ([14]; first compound 0.08 µM): 0.436
- relative viability ([14]; first compound 0.253 µM): 0.455
- relative viability ([14]; first compound 0.8 µM): 0.388
- relative viability ([14]; first compound 2.53 µM): 0.399
- relative viability ([14]; first compound 8 µM): 0.391
- relative viability ([15]; first compound 0.08 µM): 0.521
- relative viability ([15]; first compound 0.253 µM): 0.48
- relative viability ([15]; first compound 0.8 µM): 0.518
- relative viability ([15]; first compound 2.53 µM): 0.388
- relative viability ([15]; first compound 8 µM): 0.396
- relative viability ([16]; first compound 0.08 µM): 0.378
- relative viability ([16]; first compound 0.253 µM): 0.404
- relative viability ([16]; first compound 0.8 µM): 0.415
- relative viability ([16]; first compound 2.53 µM): 0.333
- relative viability ([16]; first compound 8 µM): 0.259
- relative viability ([17]; first compound 0.08 µM): 0.697
- relative viability ([17]; first compound 0.253 µM): 0.701
- relative viability ([17]; first compound 0.8 µM): 0.681
- relative viability ([17]; first compound 2.53 µM): 0.654
- relative viability ([17]; first compound 8 µM): 0.665
- relative viability ([18]; first compound 0.08 µM): 0.209
- relative viability ([18]; first compound 0.253 µM): 0.249
- relative viability ([18]; first compound 0.8 µM): 0.221
- relative viability ([18]; first compound 2.53 µM): 0.232
- relative viability ([18]; first compound 8 µM): 0.257
- relative viability ([19]; first compound 0.08 µM): 0.388
- relative viability ([19]; first compound 0.253 µM): 0.382
- relative viability ([19]; first compound 0.8 µM): 0.355
- relative viability ([19]; first compound 2.53 µM): 0.403
- relative viability ([19]; first compound 8 µM): 0.361
- relative viability ([20]; first compound 0.08 µM): 0.16
- relative viability ([20]; first compound 0.253 µM): 0.199
- relative viability ([20]; first compound 0.8 µM): 0.157
- relative viability ([20]; first compound 2.53 µM): 0.156
- relative viability ([20]; first compound 8 µM): 0.172
- relative viability ([21]; first compound 0.08 µM): 0.313
- relative viability ([21]; first compound 0.253 µM): 0.41
- relative viability ([21]; first compound 0.8 µM): 0.358
- relative viability ([21]; first compound 2.53 µM): 0.325
- relative viability ([21]; first compound 8 µM): 0.336
- relative viability ([22]; first compound 0.08 µM): 0.328
- relative viability ([22]; first compound 0.253 µM): 0.246
- relative viability ([22]; first compound 0.8 µM): 0.214
- relative viability ([22]; first compound 2.53 µM): 0.322
- relative viability ([22]; first compound 8 µM): 0.303
- relative viability ([23]; first compound 0.08 µM): 0.94
- relative viability ([23]; first compound 0.253 µM): 0.811
- relative viability ([23]; first compound 0.8 µM): 0.797
- relative viability ([23]; first compound 2.53 µM): 0.818
- relative viability ([23]; first compound 8 µM): 0.626
